From PubChem BioAssay (NCI)
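Results reflect a 48-hour exposure of cells in 96-well plates to compound at five concentrations. TGI denotes the concentration required for complete inhibition of growth.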

Columns and labels:
Assay in all cases: NCI tumour cell line growth inhibition, 48 h
[1] = system: P388 leukemia
[2] = system: P388/ADR leukemia
[3] = system: HOP-18 NSCLC
[4] = system: DMS 273 small cell lung
[5] = system: SN12K1 renal
[6] = system: MDA-N
[7] = system: RXF-631 renal

## CSc1sc(=S)sc1SC
[1]
  TGI: > 100 µM
[2]
  TGI: > 100 µM
[3]
  TGI: > 100 µM
[4]
  TGI: > 100 µM
[5]
  TGI: > 100 µM

## C[C@H](CCC1=NCCN1)[C@H]1CC[C@H]2[C@@H]3CC[C@@H]4C[C@H](O)CC[C@]4(C)[C@H]3CC[C@]12C
[6]
  TGI: 29.5 µM

## COc1ccc(/C(Cl)=C(\C=O)c2ccc(Cl)c(Cl)c2)cc1OC
[4]
  TGI: 21.7 µM
[7]
  TGI: 16.6 µM
